Data taken from article PMC7802075 (ACS Infectious Diseases, 2020).
Counter-ions that a name gives are not always drawn.

Assays:
[1] = test system: L. amazonensis intracellular amastigotes in BMDM from C57BL/6 WT or P2X7R KO mice
[2] = test system: BMDM uninfected macrophages, nitrite formation; experiment: Nitric oxide assay (Griess) in uninfected macrophages; type: cell-based, mouse; settings: serial dilutions, 48 h
Description: The release of nitric oxide was measured in the culture supernatant by the Griess method, as described previously.[81] The absorbance was measured at 570 nm, and the nitrite concentration was determined using a standard curve of sodium nitrite (0 to 50 μM). The positive control was macrophages incubated with 1 μg mL^–1 LPS (Sigma-Aldrich, Brazil) and 10% conditioned medium of lymphocytes as a source of IFN. Negative controls were cells treated with DMSO and untreated cells.

[3] = in vivo; cited from earlier work
[4] = test system: wild type Leishmania major promastigotes; type: cell-based
[5] = in vivo; cited from earlier work; remark: listed apart in the source
[6] = in vivo; cited from earlier work; remark: listed apart in the source
[7] = molecular target: T1, LmjIPCS (inositol phosphorylceramide synthase from L. major) (Leishmania major, UniProt E9AFX2); experiment: biochemical; type: biochemical
T1 sequence (E9AFX2 1-338): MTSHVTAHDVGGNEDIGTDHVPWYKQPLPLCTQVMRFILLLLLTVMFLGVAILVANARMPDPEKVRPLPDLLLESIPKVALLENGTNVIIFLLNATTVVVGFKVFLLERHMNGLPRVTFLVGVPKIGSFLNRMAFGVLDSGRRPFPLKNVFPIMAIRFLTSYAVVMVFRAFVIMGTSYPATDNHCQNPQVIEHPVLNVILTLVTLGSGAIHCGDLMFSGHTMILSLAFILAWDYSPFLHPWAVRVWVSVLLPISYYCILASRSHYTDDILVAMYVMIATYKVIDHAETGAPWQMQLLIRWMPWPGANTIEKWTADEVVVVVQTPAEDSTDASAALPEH

[8] = test system: L. major ΔLmjLCB2 mutant promastigotes; experiment: microbe, parasite or virus in culture; type: cell-based; settings: Leishmania major; sphingolipid-free mutant, 48 h; read-out: EC50 ΔLmjLCB2 parasites
[9] = test system: L. major add-back (AB) line promastigotes [pXNEO LmLCB2]; experiment: microbe, parasite or virus in culture; type: cell-based; settings: Leishmania major, 48 h
[10] = test system: L. major (FV1) promastigotes; experiment: Antipromastigote resazurin assay, L. major (FV1) wild type; type: cell-based, Leishmania major; settings: Leishmania major; FV1 WT, 48 h, compared with mutant lines; read-out: EC50 wild type L. major promastigotes
[11] = test system: Leishmania species (L. major, L. amazonensis, L. donovani, L. infantum); experiment: Dose response positive control, each Leishmania species; type: cell-based, Leishmania spp.; settings: for each species
Description: […]. Resazurin solution (10 μL) was then added and the plate, incubated at 26 °C for 4 h prior to measurement using a fluorescence plate reader (Ex555/Em585). EC50 values were calculated using sigmoidal regression analysis (GraphPad Prism).
[…]. After 24 h of infection, serial dilutions of the test compounds in medium were added and the slides were incubated at 37 °C and 5% CO2 for 5 days (L. major) or 2 days (L. amazonensis). Amphotericin B and miltefosine were used as controls. At the end, cells were fixed with methanol and stained with Giemsa solution, and the intracelular amastigotes were counted using a light microscope. Results were expressed as the percentage reduction of intracellular amastigotes (compared with untreated control wells). EC50 values were calculated using sigmoidal regression analysis (GraphPad Prism).

[12] = test system: clemastine fumarate-resistant L. major promastigotes (cl.C and cl.D); type: cell-based, Leishmania major

What does the source list for `CN1CCC[C@@H]1CCO[C@](C)(c1ccccc1)c1ccc(Cl)cc1` [clemastine fumarate 1, clemastine fumarate]?
effect of addition of extracellular ATP, P2X7R KO macrophages [1]: did not show any effect; nitrite formation (NO levels) [2]: no significant effect; nitrite formation (NO levels) ([2]; listed as clemastine): statistically non-significant; oral LD50 (rat) [3]: 3550 mg.kg^–1; cell density [4]: no change in cell density; oral LD50 (mouse) [5]: 730 mg.kg^–1; volume of distribution [6]: 9.5 ± 3.8 L kg^–1

Which inhibition at 20000 µM ([7]; read-out: 20mM inhibition LmjIPCS) does the source give for `C[C@@H]1C[C@@H]([C@H](O)CC2CC(=O)NC(=O)C2)C(=O)[C@@H](C)C1` [cycloheximide, reference compound] here?
The inhibition at 20000 µM was 9%.

What about the EC50 [8] of the same compound?
Its EC50 is 20 nM.

And the EC50 [9]?
The EC50 was 20 nM.

And the EC50 [10]?
The EC50 was 20 nM.

Which “20mM inhibition LmjIPCS” value [7] does the source give for `C[C@@H]1[C@H](O)[C@@H](C)/C=C/C=C/C=C/C=C/C=C/C=C/C=C/[C@H](O[C@@H]2O[C@H](C)[C@@H](O)[C@H](N)[C@@H]2O)C[C@@H]2O[C@](O)(C[C@@H](O)C[C@@H](O)[C@H](O)CC[C@@H](O)C[C@@H](O)CC(=O)O[C@H]1C)C[C@H](O)[C@H]2C(=O)O` [amphotericin B] here?
Its value is 41%.

What about the EC50 [11] of the same compound?
The EC50 was 27 ± 3 nM.

What about the “cross-resistance in clemastine fumarate-resistant L. major clones” value [12] of the same compound?
The value was “no evidence for cross-resistance”.
